Experimental data: ChEMBL document CHEMBL1201862, “PubChem BioAssay data set” (2004)
The source made the active and inactive calls.

Experiments:
[1] = cells; format: functional, cell-based
[2] = molecular target: T1, Lysine-specific demethylase 4C (Homo sapiens, UniProt Q9H3R0); assay: GASC-1 (JMJD2C) histone demethylase inhibitors, dose response, biochemical, DELFIA europium, cherry-picked samples (AID 488835); format: functional
T1 sequence (Q9H3R0 whole entry): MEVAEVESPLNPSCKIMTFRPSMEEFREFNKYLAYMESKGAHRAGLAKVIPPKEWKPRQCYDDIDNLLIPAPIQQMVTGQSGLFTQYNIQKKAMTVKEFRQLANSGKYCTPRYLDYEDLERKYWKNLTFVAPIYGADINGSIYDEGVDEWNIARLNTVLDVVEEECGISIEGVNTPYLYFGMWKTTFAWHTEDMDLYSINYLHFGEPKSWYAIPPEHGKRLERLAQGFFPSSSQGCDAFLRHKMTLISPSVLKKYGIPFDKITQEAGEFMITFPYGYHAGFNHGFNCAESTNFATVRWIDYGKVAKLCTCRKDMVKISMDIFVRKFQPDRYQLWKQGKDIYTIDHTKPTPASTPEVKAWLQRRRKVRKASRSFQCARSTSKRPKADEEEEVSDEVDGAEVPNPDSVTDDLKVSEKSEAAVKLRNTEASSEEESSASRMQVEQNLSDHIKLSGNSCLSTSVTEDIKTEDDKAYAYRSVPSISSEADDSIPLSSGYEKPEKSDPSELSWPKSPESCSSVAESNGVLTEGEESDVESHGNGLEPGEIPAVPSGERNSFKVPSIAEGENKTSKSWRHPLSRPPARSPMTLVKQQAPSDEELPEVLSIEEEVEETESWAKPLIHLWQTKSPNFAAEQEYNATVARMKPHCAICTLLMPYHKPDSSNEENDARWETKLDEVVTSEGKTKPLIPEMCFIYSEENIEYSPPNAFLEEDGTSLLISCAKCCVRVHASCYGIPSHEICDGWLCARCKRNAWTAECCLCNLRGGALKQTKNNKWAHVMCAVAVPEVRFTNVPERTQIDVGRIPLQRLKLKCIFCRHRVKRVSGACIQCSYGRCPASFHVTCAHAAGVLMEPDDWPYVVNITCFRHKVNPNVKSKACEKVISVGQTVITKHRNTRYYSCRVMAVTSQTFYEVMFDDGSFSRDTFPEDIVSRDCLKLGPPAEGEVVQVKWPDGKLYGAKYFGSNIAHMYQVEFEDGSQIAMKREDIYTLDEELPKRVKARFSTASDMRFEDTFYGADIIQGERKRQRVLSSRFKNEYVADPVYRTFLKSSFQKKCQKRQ

[3] = molecular target: Peroxisome proliferator-activated receptor gamma/Nuclear receptor coactivator 2 (Homo sapiens, UniProt P37231); assay: (§1) TR-FRET dose response biochemical High Throughput Screening assay for agonists of the steroid receptor coactivator 2 (SRC-2) recruitment by the peroxisome proliferator-activated receptor gamma (PPAR gamma): non-selective agonists. [Related pubchem assays: 1297, 1032 ]; format: functional
[4] = molecular target: Peroxisome proliferator-activated receptor gamma/Nuclear receptor coactivator 1 (Homo sapiens, UniProt P37231); assay: as §1, with “1 (SRC-1)” for “2 (SRC-2)”, “assays (depositor defined):AID1300, AID1808, AID504735, AID631]” for “assays: 1297, 1032 ]”; format: protein assay
[5] = molecular target: Peroxisome proliferator-activated receptor gamma/Nuclear receptor coactivator 3 (Homo sapiens, UniProt P37231); assay: as §1, with “3 (SRC-3)” for “2 (SRC-2)”, “1301 (Confirmation screen.), 1048 (Primary screen.)]” for “1297, 1032 ]”; format: functional
[6] = molecular target: SUMO-activating enzyme (Homo sapiens, UniProt Q9UBT2); assay: SUMOylation inhibitor hit validation, confirmation, SUMOylation inhibitor project, biochemical, AlphaScreen (AID 2018); format: functional
[7] = molecular target: Glyceraldehyde-3-phosphate dehydrogenase (Homo sapiens, UniProt P04406)
[8] = molecular target: T2, Alkaline phosphatase, tissue-nonspecific isozyme (Homo sapiens, UniProt P05186); assay: human TNAP enzyme inhibitors, SAR follow-up, biochemical, luminescent, dose response (AID 1056)
T2 sequence (P05186 whole entry): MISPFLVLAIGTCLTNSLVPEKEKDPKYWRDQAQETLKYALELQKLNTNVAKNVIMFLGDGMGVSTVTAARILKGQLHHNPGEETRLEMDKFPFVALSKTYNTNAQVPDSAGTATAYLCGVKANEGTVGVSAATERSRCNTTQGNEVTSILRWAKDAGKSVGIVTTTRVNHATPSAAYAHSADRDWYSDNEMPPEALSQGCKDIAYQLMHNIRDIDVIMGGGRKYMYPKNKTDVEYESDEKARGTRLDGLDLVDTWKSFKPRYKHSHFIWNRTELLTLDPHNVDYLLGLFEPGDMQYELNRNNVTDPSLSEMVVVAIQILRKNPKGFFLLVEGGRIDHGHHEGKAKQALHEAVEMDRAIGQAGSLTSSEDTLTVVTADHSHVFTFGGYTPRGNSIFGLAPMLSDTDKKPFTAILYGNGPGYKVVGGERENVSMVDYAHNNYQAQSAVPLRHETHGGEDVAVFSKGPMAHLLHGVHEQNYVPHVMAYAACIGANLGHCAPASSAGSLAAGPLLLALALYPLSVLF

[9] = molecular target: DNA dC->dU-editing enzyme APOBEC-3G (Homo sapiens, UniProt Q9HC16); format: functional;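 further: Dose-response counterscreen measuring inhibition of APOBEC3G DNA deaminase activity, run while confirming APOBEC3A inhibitors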
[10] = molecular target: T3, Corticotropin-releasing factor receptor 2/Corticotropin-releasing factor-binding protein (Homo sapiens, UniProt P24387+Q13324); assay: activators of CRF receptor 2 with binding protein – uHTS hits, confirmation (AID 602473); format: functional; settings: read-out: EC50_Mean
T3 sequence (Q13324 whole entry): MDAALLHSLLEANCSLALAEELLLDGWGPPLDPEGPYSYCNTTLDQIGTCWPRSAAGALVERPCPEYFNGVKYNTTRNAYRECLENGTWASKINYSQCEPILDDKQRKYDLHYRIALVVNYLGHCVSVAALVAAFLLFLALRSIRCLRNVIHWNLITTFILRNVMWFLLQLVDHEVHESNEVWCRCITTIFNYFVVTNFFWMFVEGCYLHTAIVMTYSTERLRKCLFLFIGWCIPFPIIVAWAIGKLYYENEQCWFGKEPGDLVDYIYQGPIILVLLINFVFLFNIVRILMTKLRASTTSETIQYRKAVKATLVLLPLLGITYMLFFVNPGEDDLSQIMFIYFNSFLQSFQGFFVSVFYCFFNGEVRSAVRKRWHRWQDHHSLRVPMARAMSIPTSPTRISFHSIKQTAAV
T3 sequence (P24387 whole entry): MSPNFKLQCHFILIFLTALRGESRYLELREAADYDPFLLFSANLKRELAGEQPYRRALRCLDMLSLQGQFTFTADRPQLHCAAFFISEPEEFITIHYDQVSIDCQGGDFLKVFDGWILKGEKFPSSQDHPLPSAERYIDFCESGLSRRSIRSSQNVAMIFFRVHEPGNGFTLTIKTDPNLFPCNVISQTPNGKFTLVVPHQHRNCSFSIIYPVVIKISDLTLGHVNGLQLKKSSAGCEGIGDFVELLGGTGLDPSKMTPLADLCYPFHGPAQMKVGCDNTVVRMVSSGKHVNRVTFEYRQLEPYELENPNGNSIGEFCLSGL

[11] = molecular target: DNA dC->dU-editing enzyme APOBEC-3A (Homo sapiens, UniProt P31941); assay: Dose Response confirmation of small molecule APOBEC3A DNA Deaminase Inhibitors via a fluorescence-based single-stranded DNA deaminase assay. [Related pubchem assays (depositor defined):AID493011, AID493024]; format: functional
[12] = molecular target: T4, Calpain-2 catalytic subunit (Sus scrofa, UniProt P43367); assay: pig calpain II inhibitor potency, dose response, biochemical, fluorogenic peptide substrate (AID 1420); format: functional
T4 sequence (P43367 whole entry): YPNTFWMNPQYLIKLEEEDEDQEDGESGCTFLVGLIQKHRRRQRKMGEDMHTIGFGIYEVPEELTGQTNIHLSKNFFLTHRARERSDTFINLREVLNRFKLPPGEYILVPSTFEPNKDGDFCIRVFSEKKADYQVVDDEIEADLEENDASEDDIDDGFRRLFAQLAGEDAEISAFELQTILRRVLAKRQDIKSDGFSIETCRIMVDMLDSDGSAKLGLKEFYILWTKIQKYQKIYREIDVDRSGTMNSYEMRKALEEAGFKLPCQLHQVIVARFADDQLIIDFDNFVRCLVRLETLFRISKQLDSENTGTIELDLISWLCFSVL

[13] = system: HEK293; assay: cells; format: functional, cell-based; settings: Homo sapiens
[14] = Shn3 3'UTR reporter inhibitors, dose response, cell-based, Clone20 osteoblasts, firefly luciferase, cherry-picked (AID 624132); format: functional;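 further: firefly luciferase luminescence from reporter carrying the Shn3 3'UTR in osteoblasts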
[15] = system: HEK293; assay: cells; format: functional, cell-based; settings: Homo sapiens; remark: listed apart in the source
[16] = control 3'UTR Renilla luciferase suppression, dose response, counter-screen for Shn3 inhibitor project, cell-based, Clone20-Shn3RL, cherry-picked (AID 624133); format: functional
[17] = HepG2 cell cytotoxicity, dose response, cytotoxicity control for Shn3 inhibitor project, CellTiter-Glo, cherry-picked (AID 624134); format: functional, cell-based
[18] = system: HEK293; assay: NOD2 signaling inhibitors in MDP-stimulated cells, cell-based, uHTS, luminescence (AID 2001); format: functional; settings: Homo sapiens
[19] = system: HEK293; assay: NOD1 signaling inhibitors, primary screen, cell-based, luminescence, uHTS (AID 1578); format: functional; settings: Homo sapiens
[20] = cytotoxicity in HEK-293T cells, dose response, cytotoxicity control for BCR NF-kB inhibitor project, luminescence, B-cell screen hits (AID 489021); format: functional, cell-based;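 further: HEK-293T cells carrying an NF-kB luciferase reporter; cells exposed to compound for about 14 hours before viability readout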
[21] = molecular target: T5, Coagulation factor XII (Homo sapiens, UniProt P00748); format: functional;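 further: activated factor XIIa alpha cleaving a fluorogenic AMC peptide substrate; inhibitor potency from loss of enzyme activity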
T5 sequence (P00748 whole entry): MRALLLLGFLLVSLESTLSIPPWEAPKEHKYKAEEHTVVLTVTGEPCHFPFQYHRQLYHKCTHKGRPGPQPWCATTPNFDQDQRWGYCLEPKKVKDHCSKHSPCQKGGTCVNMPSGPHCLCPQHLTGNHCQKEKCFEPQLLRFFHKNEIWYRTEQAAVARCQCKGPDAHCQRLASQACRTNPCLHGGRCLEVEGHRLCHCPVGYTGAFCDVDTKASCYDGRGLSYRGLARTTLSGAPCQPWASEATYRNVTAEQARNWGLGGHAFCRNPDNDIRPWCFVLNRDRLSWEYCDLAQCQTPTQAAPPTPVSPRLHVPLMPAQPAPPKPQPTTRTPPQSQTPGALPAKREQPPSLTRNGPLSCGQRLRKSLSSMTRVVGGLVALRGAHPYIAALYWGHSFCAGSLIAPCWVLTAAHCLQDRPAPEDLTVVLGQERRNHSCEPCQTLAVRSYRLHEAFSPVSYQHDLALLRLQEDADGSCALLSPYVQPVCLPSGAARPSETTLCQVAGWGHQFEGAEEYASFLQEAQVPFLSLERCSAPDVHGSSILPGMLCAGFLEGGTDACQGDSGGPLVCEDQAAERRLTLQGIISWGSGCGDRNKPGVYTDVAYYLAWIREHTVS

Peroxisome proliferator-activated receptor gamma/Nuclear receptor coactivator 1, sequence (P37231 whole entry): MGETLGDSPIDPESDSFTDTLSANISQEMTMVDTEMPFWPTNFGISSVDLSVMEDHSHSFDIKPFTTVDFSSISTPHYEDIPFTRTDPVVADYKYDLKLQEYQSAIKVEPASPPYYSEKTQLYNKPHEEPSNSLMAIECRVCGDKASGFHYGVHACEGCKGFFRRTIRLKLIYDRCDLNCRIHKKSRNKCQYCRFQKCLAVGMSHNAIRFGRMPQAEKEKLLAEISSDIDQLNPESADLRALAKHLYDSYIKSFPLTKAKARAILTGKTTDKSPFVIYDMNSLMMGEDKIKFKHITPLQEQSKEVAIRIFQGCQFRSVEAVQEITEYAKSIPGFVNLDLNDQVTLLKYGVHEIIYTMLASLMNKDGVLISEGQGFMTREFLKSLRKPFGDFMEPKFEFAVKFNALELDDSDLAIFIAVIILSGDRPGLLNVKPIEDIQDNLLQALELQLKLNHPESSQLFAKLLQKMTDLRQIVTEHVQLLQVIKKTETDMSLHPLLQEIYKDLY
Peroxisome proliferator-activated receptor gamma/Nuclear receptor coactivator 1, sequence (Q15788 whole entry, further chain): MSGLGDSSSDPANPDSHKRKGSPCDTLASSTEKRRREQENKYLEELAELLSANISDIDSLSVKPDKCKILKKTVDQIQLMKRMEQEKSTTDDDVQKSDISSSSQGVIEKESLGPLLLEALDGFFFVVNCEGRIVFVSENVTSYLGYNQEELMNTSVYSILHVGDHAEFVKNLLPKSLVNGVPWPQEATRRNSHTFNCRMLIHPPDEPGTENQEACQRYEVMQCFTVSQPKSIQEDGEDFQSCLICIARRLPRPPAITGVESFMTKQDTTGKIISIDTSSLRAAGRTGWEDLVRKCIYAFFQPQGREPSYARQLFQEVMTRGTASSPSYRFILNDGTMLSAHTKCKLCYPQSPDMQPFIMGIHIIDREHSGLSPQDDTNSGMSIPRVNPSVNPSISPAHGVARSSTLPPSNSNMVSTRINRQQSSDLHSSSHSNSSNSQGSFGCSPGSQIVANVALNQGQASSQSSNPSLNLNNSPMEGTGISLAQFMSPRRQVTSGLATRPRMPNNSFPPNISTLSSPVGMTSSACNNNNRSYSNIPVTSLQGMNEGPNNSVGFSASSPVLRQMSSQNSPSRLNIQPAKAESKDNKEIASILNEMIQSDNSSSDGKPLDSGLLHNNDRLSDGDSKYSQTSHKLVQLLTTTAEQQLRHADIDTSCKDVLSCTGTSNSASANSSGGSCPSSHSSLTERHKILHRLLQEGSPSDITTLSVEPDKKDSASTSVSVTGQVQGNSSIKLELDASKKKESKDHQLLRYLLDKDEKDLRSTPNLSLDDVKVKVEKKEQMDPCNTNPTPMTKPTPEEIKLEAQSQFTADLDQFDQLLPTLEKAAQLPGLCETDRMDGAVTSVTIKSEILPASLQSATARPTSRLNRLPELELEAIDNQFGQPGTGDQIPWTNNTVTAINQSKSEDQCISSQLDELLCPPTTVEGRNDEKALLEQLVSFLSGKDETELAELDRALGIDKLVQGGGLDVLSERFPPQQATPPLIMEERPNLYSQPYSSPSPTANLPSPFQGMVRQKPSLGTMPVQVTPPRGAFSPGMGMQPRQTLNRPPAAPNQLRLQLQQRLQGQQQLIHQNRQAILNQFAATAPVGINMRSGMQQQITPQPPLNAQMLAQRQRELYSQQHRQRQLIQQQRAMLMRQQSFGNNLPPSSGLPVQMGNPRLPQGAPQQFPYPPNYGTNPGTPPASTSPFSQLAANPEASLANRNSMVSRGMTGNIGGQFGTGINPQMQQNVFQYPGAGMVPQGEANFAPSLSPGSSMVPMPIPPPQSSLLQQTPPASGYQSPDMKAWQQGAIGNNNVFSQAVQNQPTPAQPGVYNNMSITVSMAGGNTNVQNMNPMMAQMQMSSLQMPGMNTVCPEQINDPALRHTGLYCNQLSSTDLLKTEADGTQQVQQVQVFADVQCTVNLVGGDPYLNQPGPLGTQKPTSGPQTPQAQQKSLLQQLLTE
Peroxisome proliferator-activated receptor gamma/Nuclear receptor coactivator 2, sequence (P37231 whole entry): as the sequence (P37231 whole entry) above
Peroxisome proliferator-activated receptor gamma/Nuclear receptor coactivator 2, sequence (Q15596 whole entry, further chain): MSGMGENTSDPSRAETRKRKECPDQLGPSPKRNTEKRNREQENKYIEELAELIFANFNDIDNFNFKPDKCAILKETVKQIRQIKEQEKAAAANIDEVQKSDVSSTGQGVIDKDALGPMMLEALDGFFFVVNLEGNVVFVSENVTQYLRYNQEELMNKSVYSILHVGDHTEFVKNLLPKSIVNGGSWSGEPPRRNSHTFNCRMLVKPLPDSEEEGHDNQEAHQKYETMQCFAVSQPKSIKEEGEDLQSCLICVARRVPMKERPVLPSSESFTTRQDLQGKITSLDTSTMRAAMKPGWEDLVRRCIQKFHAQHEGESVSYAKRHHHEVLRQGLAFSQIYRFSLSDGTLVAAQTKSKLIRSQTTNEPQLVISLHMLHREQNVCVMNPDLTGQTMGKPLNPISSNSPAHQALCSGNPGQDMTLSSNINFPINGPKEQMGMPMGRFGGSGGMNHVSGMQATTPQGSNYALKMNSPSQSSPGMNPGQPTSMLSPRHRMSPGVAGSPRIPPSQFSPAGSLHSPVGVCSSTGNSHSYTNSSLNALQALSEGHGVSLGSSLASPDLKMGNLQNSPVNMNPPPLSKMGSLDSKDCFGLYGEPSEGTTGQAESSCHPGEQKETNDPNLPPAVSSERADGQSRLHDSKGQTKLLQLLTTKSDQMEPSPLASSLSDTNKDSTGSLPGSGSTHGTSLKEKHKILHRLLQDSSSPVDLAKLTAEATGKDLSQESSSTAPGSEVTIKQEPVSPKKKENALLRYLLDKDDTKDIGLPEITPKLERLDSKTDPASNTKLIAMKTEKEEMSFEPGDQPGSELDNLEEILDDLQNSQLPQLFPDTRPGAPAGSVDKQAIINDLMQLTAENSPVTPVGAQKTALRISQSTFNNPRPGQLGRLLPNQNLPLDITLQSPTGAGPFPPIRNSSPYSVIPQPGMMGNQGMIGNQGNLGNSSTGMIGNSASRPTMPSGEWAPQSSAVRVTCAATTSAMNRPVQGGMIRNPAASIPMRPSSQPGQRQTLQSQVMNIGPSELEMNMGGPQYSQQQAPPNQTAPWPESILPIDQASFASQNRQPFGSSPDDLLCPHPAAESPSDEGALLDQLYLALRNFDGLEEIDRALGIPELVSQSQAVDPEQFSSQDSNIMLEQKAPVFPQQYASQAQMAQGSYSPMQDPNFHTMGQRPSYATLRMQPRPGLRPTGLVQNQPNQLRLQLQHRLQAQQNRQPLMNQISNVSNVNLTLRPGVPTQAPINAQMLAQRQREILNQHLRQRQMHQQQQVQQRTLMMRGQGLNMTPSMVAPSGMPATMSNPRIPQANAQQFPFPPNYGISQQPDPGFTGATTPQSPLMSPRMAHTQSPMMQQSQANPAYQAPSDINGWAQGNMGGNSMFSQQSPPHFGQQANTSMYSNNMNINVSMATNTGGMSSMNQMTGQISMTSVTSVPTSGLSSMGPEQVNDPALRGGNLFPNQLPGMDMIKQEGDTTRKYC
DNA dC->dU-editing enzyme APOBEC-3G, sequence (Q9HC16 whole entry): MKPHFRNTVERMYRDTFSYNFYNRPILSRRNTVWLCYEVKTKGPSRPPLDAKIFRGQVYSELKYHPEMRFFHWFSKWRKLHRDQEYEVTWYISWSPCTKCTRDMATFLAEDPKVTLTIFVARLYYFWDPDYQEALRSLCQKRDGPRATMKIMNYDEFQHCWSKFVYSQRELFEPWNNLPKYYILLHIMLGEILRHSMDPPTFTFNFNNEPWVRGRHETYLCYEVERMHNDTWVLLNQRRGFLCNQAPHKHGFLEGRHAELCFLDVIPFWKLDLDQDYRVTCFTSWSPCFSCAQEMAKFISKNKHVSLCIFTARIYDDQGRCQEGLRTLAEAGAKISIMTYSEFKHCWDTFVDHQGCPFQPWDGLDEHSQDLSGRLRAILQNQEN
Glyceraldehyde-3-phosphate dehydrogenase, sequence (P04406 whole entry): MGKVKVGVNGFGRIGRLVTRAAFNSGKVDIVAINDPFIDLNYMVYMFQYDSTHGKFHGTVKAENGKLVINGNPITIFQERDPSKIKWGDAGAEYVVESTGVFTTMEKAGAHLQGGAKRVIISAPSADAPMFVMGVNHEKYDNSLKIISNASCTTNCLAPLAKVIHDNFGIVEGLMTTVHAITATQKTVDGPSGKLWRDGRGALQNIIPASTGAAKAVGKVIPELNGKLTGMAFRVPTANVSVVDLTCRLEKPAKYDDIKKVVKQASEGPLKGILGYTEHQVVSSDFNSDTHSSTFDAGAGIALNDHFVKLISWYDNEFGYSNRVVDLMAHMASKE
DNA dC->dU-editing enzyme APOBEC-3A, sequence (P31941 whole entry): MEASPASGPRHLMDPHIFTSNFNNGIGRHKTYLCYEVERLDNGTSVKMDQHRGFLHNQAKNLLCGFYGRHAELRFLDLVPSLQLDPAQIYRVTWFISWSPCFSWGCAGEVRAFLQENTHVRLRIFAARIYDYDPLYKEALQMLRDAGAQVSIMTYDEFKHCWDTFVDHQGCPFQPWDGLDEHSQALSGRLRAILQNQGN

COc1ccc(-c2csc(NNC3=NCCCCC3)n2)cc1
EC50 [1]: > 350 µM (not active) | AC50 [2]: 7.08 µM (active)

CCn1c(=O)cc(SCC(=O)NCc2ccc3c(c2)OCO3)c2ccccc21
EC50 [3]: > 79.4 µM (not active) | EC50 [4]: > 79.4 µM (inactive) | EC50 [5]: > 79.4 µM (not active)

CCc1nn(CC(=O)NC(C)CCc2ccccc2)c(=O)c2cc3cc(F)ccc3n12 (configuration not stated)
IC50 [6]: 45.3 µM (active)

Cn1cnc(-c2cccnc2)c1
IC50 [7]: > 100 µM (not active) | IC50 [8]: > 100 µM (inactive)

COC(=O)Cn1cc(/C=C/c2cc[n+](C)cc2)c2ccccc21
IC50 [9]: 3.58 µM (active) | EC50 [10]: 8.34 µM (active) | IC50 [11]: 3.05 µM (active)

CCN1CCN(S(=O)(=O)c2ccc(Cl)c(C(=O)N(C)C(c3ccccc3)c3ccccc3)c2)CC1
IC50 [9]: 5.67 µM (active) | IC50 [11]: 4.6 µM (active)

CC(C)Cn1c(N)c(C(=O)COC(=O)CC23CC4CC(CC(C4)C2)C3)c(=O)n(C)c1=O
IC50 [12]: 5.92 µM (not active) | IC50 [13]: 6.35 µM (active) | AC50 [14]: 1.51 µM (active) | IC50 [15]: 2.31 µM (active) | AC50 [16]: 0.435 µM (active) | AC50 [17]: 1.7 µM (active) | IC50 [18]: 3.31 µM (active) | EC50 [19]: 3.06 µM (active)

O=C(Nc1ccc(S(=O)(=O)Nc2ncccn2)cc1)c1ccc(Br)s1
EC50 [3]: > 79.4 µM (not active) | EC50 [4]: > 79.4 µM (inactive) | EC50 [5]: > 79.4 µM (not active)

CCn1c(=O)cc(SCC(=O)N2CCC3(CC2)OCCO3)c2ccccc21
EC50 [3]: > 79.4 µM (not active) | IC50 [20]: > 80 µM (inactive) | EC50 [4]: > 79.4 µM (inactive) | EC50 [5]: > 79.4 µM (not active)

COC(=O)[C@@H](N)Cc1ccc(O)c(O)c1
AC50 [2]: 11.5 µM (active)

Cc1cc(NC(=O)CCN2C(=O)/C(=C/c3ccccc3F)SC2=S)no1
IC50 [21]: > 50 µM (inactive)

CCc1cccc(CC)c1N(COC)C(=O)Cn1c(CO)nc2ccccc21
IC50 [21]: > 50 µM (inactive)

COCCCNC(=O)C1CCN(C(=O)Nc2ccc(Cl)cc2)CC1
AC50 [2]: 44.8 µM (active)

c1cncc(-c2cnc3ccccc3c2)c1
IC50 [7]: > 100 µM (not active) | IC50 [8]: > 100 µM (inactive)

COc1cccc(OC)c1C(=O)Nc1nnc(-c2cccs2)s1
EC50 [3]: 22 µM (not active) | EC50 [4]: 17.7 µM (inactive) | EC50 [5]: > 79.4 µM (not active)
